From article PMC7926793, “Synthesis and Biological Evaluation of 1-(Diarylmethyl)-1H-1,2,4-triazoles and 1-(Diarylmethyl)-1H-imidazoles as a Novel Class of Anti-Mitotic Agent for Activity in Breast Cancer” (Pharmaceuticals, 2021)

Key:
Type in all cases: cell-based, human
NCI-H226 = assay: NCI 60 cell line screen (Non-Small Cell Lung Cancer); conditions: NCI-H226, single dose 10 µM
DU-145 = assay: NCI 60 cell line screen (Prostate cancer); conditions: DU-145, single dose 10 µM
HS 578T = assay: NCI 60 cell line screen (Breast Cancer); conditions: single dose 10 µM
MDA-MB-231/ATCC = assay: NCI 60 cell line screen (Breast Cancer); conditions: single dose 10 µM
HCT-2998 = assay: NCI 60 cell line screen (Colon Cancer); conditions: HCT-2998, single dose 10 µM
UACC-257 = assay: NCI 60 cell line screen (Melanoma); conditions: UACC-257, single dose 10 µM
MOLT-4 = assay: NCI 60 cell line screen (Leukemia); conditions: MOLT-4, single dose 10 µM
NCI-H460 = assay: NCI 60 cell line screen (Non-Small Cell Lung Cancer); conditions: NCI-H460, single dose 10 µM
NCI-H332M = assay: as above; conditions: single dose 10 µM
786-0 = assay: NCI 60 cell line screen (Renal Cancer); conditions: 786-0, single dose 10 µM
SNB-75 = assay: NCI 60 cell line screen (CNS Cancer); conditions: SNB-75, single dose 10 µM
KM12 = assay: NCI 60 cell line screen (Colon Cancer); conditions: KM12, single dose 10 µM
SF295 = assay: NCI 60 cell line screen (CNS Cancer); conditions: SF295, single dose 10 µM
SF-268 = assay: NCI 60 cell line screen (CNS Cancer); conditions: SF-268, single dose 10 µM
RXF 393 = assay: NCI 60 cell line screen (Renal Cancer); conditions: RXF 393, single dose 10 µM
SK-OV-3 = assay: NCI 60 cell line screen (Ovarian Cancer); conditions: SK-OV-3, single dose 10 µM
MDA-MB-435 = assay: NCI 60 cell line screen (Melanoma); conditions: MDA-MB-435, single dose 10 µM
SK-MEL-28 = assay: NCI 60 cell line screen (Melanoma); conditions: SK-MEL-28, single dose 10 µM
HL-60 (TB) = assay: NCI 60 cell line screen (Leukemia); conditions: single dose 10 µM
SNB-19 = assay: NCI 60 cell line screen (CNS Cancer); conditions: SNB-19, single dose 10 µM
UACC-62 = assay: NCI 60 cell line screen (Melanoma); conditions: UACC-62, single dose 10 µM
OVCAR-3 = assay: NCI 60 cell line screen (Ovarian Cancer); conditions: OVCAR-3, single dose 10 µM
MDA-MB-468 = assay: NCI 60 cell line screen (Breast Cancer); conditions: MDA-MB-468, single dose 10 µM
HCT-116 = assay: NCI 60 cell line screen (Colon Cancer); conditions: HCT-116, single dose 10 µM
OVCAR-4 = assay: NCI 60 cell line screen (Ovarian Cancer); conditions: OVCAR-4, single dose 10 µM
NCI-H552 = assay: NCI 60 cell line screen (Non-Small Cell Lung Cancer); conditions: NCI-H552, single dose 10 µM
HOP-62 = assay: as above; conditions: HOP-62, single dose 10 µM
ACHN = assay: NCI 60 cell line screen (Renal Cancer); conditions: single dose 10 µM
CCRF-CEM = assay: NCI 60 cell line screen (Leukemia); conditions: single dose 10 µM
IGROV1 = assay: NCI 60 cell line screen (Ovarian Cancer); conditions: IGROV1, single dose 10 µM
HOP-92 = assay: NCI 60 cell line screen (Non-Small Cell Lung Cancer); conditions: HOP-92, single dose 10 µM
MALME-3M = assay: NCI 60 cell line screen (Melanoma); conditions: single dose 10 µM
NCI/ADR-RES = assay: NCI 60 cell line screen (Ovarian Cancer); conditions: single dose 10 µM

COc1ccc(C(c2cc(OC)c(OC)c(OC)c2)N2CCN(Cc3ccccc3)CC2)cc1 (stereo not drawn) [27d]
Growth percentage (NCI-H226): 85.40%
Growth percentage (DU-145): 102.00%
Growth percentage (HS 578T): 59.07%
Growth percentage (MDA-MB-231/ATCC): 71.05%
Growth percentage (HCT-2998): 91.92%
Growth percentage (UACC-257): 84.23%
Growth percentage (MOLT-4): 53.48%
Growth percentage (NCI-H460): 74.38%
Growth percentage (NCI-H332M): 65.07%
Growth percentage (786-0): 82.57%
Growth percentage (SNB-75): 92.44%
Growth percentage (KM12): 40.62%
Growth percentage (SF295): 68.71%
Growth percentage (SF-268): 86.44%
Growth percentage (RXF 393): 72.30%
Growth percentage (SK-OV-3): 66.24%
Growth percentage (MDA-MB-435): -32.20%
Growth percentage (SK-MEL-28): 78.33%
Growth percentage (HL-60 (TB)): 22.98%
Growth percentage (SNB-19): 69.95%
Growth percentage (UACC-62): 49.44%
Growth percentage (OVCAR-3): 68.96%
Growth percentage (MDA-MB-468): 52.99%
Growth percentage (HCT-116): 56.66%
Growth percentage (OVCAR-4): 97.02%
Growth percentage (NCI-H552): 52.38%
Growth percentage (HOP-62): 69.72%
Growth percentage (ACHN): 92.77%
Growth percentage (CCRF-CEM): 68.76%
Growth percentage (IGROV1): 62.96%
Growth percentage (HOP-92): 70.59%
Growth percentage (MALME-3M): 74.83%
Growth percentage (NCI/ADR-RES): 61.59%
